Like-named read-outs stand apart in the source and are kept apart here.
Columns and labels:
[1] = test system: rHMPV-GFP (recombinant HMPV CAN97-83, MPV-GFP1); assay: HMPV antiviral assay (eGFP fluorescence in Vero E6 cells); assay type: cell-based; settings: read-out: rHMPV-GFP EC50
Experimental: HMPV antiviral activity was evaluated using a recombinant version of HMPV CAN97-83 engineered to contain the coding sequence for enhanced green fluorescence protein (eGFP) in the 3′ end of the virus genome (MPV-GFP1, ViraTree). Vero E6 cells (ATCC #CCL-7) were seeded at a density of 12,000 cells/100 μL/well into 96-well cell plates (VENDOR) one day prior to the assay. On the day of screening, the cell culture medium was aspirated from the wells and cells were washed twice with serum-free Eagle's Modified Essential Medium (EMEM, ATCC #) containing 1% penicillin-streptomycin (Invitrogen) (SF-EMEM). Cell washes were performed by dispensing 100 μL SF-EMEM per well and immediately aspirating the wash medium from the well. Following the second wash step, serum-free OptiMEM (Invitrogen, Cat No.) (SF-OptiMEM) containing 0.5 μg/mL TPCK-Trypsin (VENDOR) and 1% penicillin-streptomycin was added to the cells at 50 μL/well. Compounds were added into the 96-well plates using a JANUS automated liquid handling system (VENDOR). Compounds were initially diluted 1:50 into an intermediate 96-well plate containing SF-OptiMEM prior to transfer to the assay plate (25 μL/well). Each of the test compounds was tested in duplicate wells at final concentrations starting from 8 μM or 2 μM using ½ stepwise dilutions for a total of 8 points. Virus infection was performed by preparing a working stock of MPV-GFP1 at a multiplicity of infection (MOI) equal to 0.05/25 μL and aliquoting 25 μL of virus inoculum to the compound and positive control wells. SF-OptiMEM was added (25 μL/well) to the appropriate wells to serve as a virus-free negative control for the assay. The final DMSO concentration of all wells is 0.5%. Plates were incubated at 32° C., 5% CO2 for 5 days. After 5 days incubation, eGFP fluorescence intensity was measured at […] using a Spectramax i3X plate reader (VENDOR). Percent viral inhibition was calculated using the following equation: y=[[…]]×100 Where XQ is the fluorescence intensity measured in a well containing recombinant MPV-GFP1-infected, compound-treated cells and XP is the average fluorescence intensity measured in the wells containing untreated cells infected with recombinant virus. EC50 values were then calculated by non-linear regression using a four parameter curve logistic equation. The curve fit model employed was XLFit Dose Response One Site Model 200: y=(A+(B/(1+((x/C)^D)))) Where A is the minimum y value, B is the maximum y value, C is the log EC50 value, and D is the slope factor. The EC50 of each compound is listed in Table 2 and EC50 ranges are as follows: A<0.2 μM; B≥0.2 μM.

[2] = test system: Human RSV-A (“Long” strain); assay: RSV-A assay (CPE, ATPlite readout in Hep-2 cells); assay type: cell-based; settings: Hep-2 cells, MOI 0.1, 5-day incubation, ATPlite, read-out: Human RSV-A (“Long” strain) EC50
Description: Hep-2 cells, (originally derived from tumors grown in irradiated-cortisonised weanling rats that had been injected with epidermoid carcinoma tissue from a person's larynx, but later found to be indistinguishable from HeLa cells by PCR DNA analysis), were used for the culturing of genotype A, “Long” strain RSV. Flasks were inoculated with RSV and viral stocks were collected once cytopathic effect (CPE) was greater than 90%. Viral stocks in 25% sucrose media were snap frozen using liquid nitrogen to increase viral stability. Viral stock titers were quantified by tissue culture infectious dose 50% (TCID50) using 8,000 cells per well and 3-fold viral dilutions across a 96-well plate, cultured for 4 days. Viral stock titers were also quantified by a plaque forming unit assay, as described elsewhere.
Following extensive parameter testing, the final assay is run as follows: Hep-2 cells are seeded into the inner 60 wells of a 96-well plate at 8,000 cells per well in a volume of 50 μL using Growth Media (DMEM without phenol red, 1% L-Glut, 1% Penn/Strep, 1% nonessential amino acids, 10% heat-inactivated FBS). 2-fold serial dilutions of control and test compounds are added to the wells in duplicate in a total volume of 25 μL. Viral stock is then added to the wells at a multiplicity of infection (MOI) of 0.1 in a volume of 25 μL, bringing the total volume of each well to 100 μL. The MOI is calculated using the PFU/mL, or TCID50 if unavailable. Each 96-well plate has a control column of 6 wells with cells and virus but no compound (negative control, max CPE), a column with cells but no compound or virus (positive control, minimum CPE), and a column with no cells or virus or compound (background plate/reagent control). The control wells with cells but no virus are given an additional […], of growth media containing an equal quantity of sucrose as those wells receiving the viral stock in order to keep consistent in media and volume conditions. The outer wells of the plate are filled with 125 μL of moat media (DMEM, 1% Penn/Strep) to act as a thermal and evaporative moat around the test wells. Following a 5-day incubation period, the plates are read using ATPlite (50 uL added per well), which quantifies the amount of ATP (a measure of cell health) present in each well. Assay plates are read using the Envision luminometer. […] EC50 ranges are as follows: A<0.2 μM; B≥0.2 μM.

[3] = human respiratory syncytial virus, 120 h

Compound	EC50 ([1]; Vero C1008, 120 h) [nM]	EC50 [2, 3] [nM]	EC50 ([1]; Vero E6 cells, MOI 0.05, 5 days at 32° C., eGFP fluorescence) [nM]	EC50 [2] [nM]
COc1cc(C(=O)NC[C@](O)(c2cc3c(c(-c4ccc(F)cc4)n2)OC[C@@]3(N)C(F)(F)F)C(F)(F)F)ccc1OC1CC1 [Example 1]	> 200	< 200		
COc1cc(C(=O)NC[C@](O)(c2cc3c(c(-c4ccc(F)cc4)n2)OC[C@]3(N)C(F)(F)F)C(F)(F)F)ccc1OC1CC1 [Example 3, N—((S)-2-((S)-3-amino-7-(4-fluorophenyl)-3-(trifluoromethyl)-2,3-dihydrofuro[2,3-c]pyridin-5-yl)-3,3,3-trifluoro-2-hydroxypropyl)-4-cyclopropoxy-3-methoxybenzamide]	> 200	< 200		
COc1cc(C(=O)NC[C@@](O)(c2cc3c(c(-c4ccc(F)cc4)n2)OC[C@]3(N)C(F)(F)F)C(F)(F)F)ccc1OC1CC1 [Example 4, N—((R)-2-((S)-3-amino-7-(4-fluorophenyl)-3-(trifluoromethyl)-2,3-dihydrofuro[2,3-c]pyridin-5-yl)-3,3,3-trifluoro-2-hydroxypropyl)-4-cyclopropoxy-3-methoxybenzamide]	> 200	> 200		
COc1cc(C(=O)NC[C@](O)(c2cc3c(c(-c4ccc(F)cc4)n2)OC[C@@]3(N)C(F)(F)F)C(F)(F)F)cc2cccnc12 [Example 5, N—((S)-2-((R)-3-amino-7-(4-fluorophenyl)-3-(trifluoromethyl)-2,3-dihydrofuro[2,3-c]pyridin-5-yl)-3,3,3-trifluoro-2-hydroxypropyl)-8-methoxyquinoline-6-carboxamide]	> 200	< 200		
COc1cc(C(=O)NC[C@](O)(c2cc3c(c(-c4ccc(F)cc4)n2)OC[C@]3(N)C(F)(F)F)C(F)(F)F)cc2cccnc12 [Example 6, N—((S)-2-((S)-3-amino-7-(4-fluorophenyl)-3-(trifluoromethyl)-2,3-dihydrofuro[2,3-c]pyridin-5-yl)-3,3,3-trifluoro-2-hydroxypropyl)-8-methoxyquinoline-6-carboxamide]	> 200	< 200		
COc1cc(C(=O)NC[C@](C)(O)c2cc3c(c(-c4ccc(F)cc4)n2)OC[C@@]3(N)C(F)(F)F)ccc1OC1CC1 [Example 7, N—((S)-2-((R)-3-amino-7-(4-fluorophenyl)-3-(trifluoromethyl)-2,3-dihydrofuro[2,3-c]pyridin-5-yl)-2-hydroxypropyl)-4-cyclopropoxy-3-methoxybenzamide]	< 200	< 200		
COc1cc(C(=O)NC[C@@](O)(CF)c2cc3c(c(-c4ccc(F)cc4)n2)OC[C@@]3(N)C(F)(F)F)ccc1OC1CC1 [Example 8]			< 200	< 200
COc1cc(C(=O)NC[C@](O)(c2cc3c(c(-c4ccc(F)cc4)n2)OC[C@@]3(N)C(F)(F)F)C2CC2)ccc1OC1CC1 [Example 9, N—((S)-2-((R)-3-amino-7-(4-fluorophenyl)-3-(trifluoromethyl)-2,3-dihydrofuro[2,3-c]pyridin-5-yl)-2-cyclopropyl-2-hydroxyethyl)-4-cyclopropoxy-3-methoxybenzamide]	< 200	< 200		
COc1cc(C(=O)NC[C@](O)(c2cc3c(c(-c4ccc(F)cc4)n2)OC[C@@]3(N)C(F)(F)F)C2CC2)cc2cccnc12 [Example 10]	> 200	< 200		
N[C@@]1(C(F)(F)F)COc2c1cc([C@@](O)(CNC(=O)c1cc(OC3CC3)c3ncccc3c1)C1CC1)nc2-c1ccc(F)cc1 [Example 11, N—((S)-2-((R)-3-amino-7-(4-fluorophenyl)-3-(trifluoromethyl)-2,3-dihydrofuro[2,3-c]pyridin-5-yl)-2-cyclopropyl-2-hydroxyethyl)-8-cyclopropoxyquinoline-6-carboxamide]	> 200	< 200		
COc1cc(C(=O)NC[C@](O)(c2cc3c(c(-c4ccc(F)cc4)n2)OC[C@@]3(NC(=O)COC(C)=O)C(F)(F)F)C(F)(F)F)ccc1OC1CC1 [Example 13, 2-(((R)-5-((S)-3-(4-cyclopropoxy-3-methoxybenzamido)-1,1,1-trifluoro-2-hydroxypropan-2-yl)-7-(4-fluorophenyl)-3-(trifluoromethyl)-2,3-dihydrofuro[2,3-c]pyridin-3-yl)amino)-2-oxoethyl acetate]	> 200	< 200		
N[C@@]1(C(F)(F)F)COc2c1cc([C@@](O)(CNC(=O)c1ccc(OC3CC3)c(OC3CC3)c1)C1CC1)nc2-c1ccc(F)cc1 [Example 19, N—((S)-2-((R)-3-amino-7-(4-fluorophenyl)-3-(trifluoromethyl)-2,3-dihydrofuro[2,3-c]pyridin-5-yl)-2-cyclopropyl-2-hydroxyethyl)-3,4-dicyclopropoxybenzamide]	< 200	< 200		
C[C@](O)(CNC(=O)c1ccc(OC2CC2)c(OC2CC2)c1)c1cc2c(c(-c3ccc(F)cc3)n1)OC[C@@]2(N)C(F)(F)F [Example 20, N—((S)-2-((R)-3-amino-7-(4-fluorophenyl)-3-(trifluoromethyl)-2,3-dihydrofuro[2,3-c]pyridin-5-yl)-2-hydroxypropyl)-3,4-dicyclopropoxybenzamide]	< 200	< 200		
N[C@@]1(C(F)(F)F)COc2c1cc([C@@](O)(CNC(=O)c1cc(OC3CC3)c3ncccc3c1)C1COC1)nc2-c1ccc(F)cc1 [Example 58]		> 200		
N[C@@]1(C(F)(F)F)COc2c1cc([C@](O)(CO)CNC(=O)c1cc(OC3CC3)c3ncccc3c1)nc2-c1ccc(F)cc1 [Example 59]		> 200		
N[C@@]1(C(F)(F)F)COc2c1cc([C@@](O)(CNC(=O)c1cc(OC3CC3)c3c(ccc[n+]3[O-])c1)C1CC1)nc2-c1ccc(F)cc1 [Example 59b]		> 200		
N[C@@]1(C(F)(F)F)COc2c1cc([C@@](O)(CNC(=O)c1cc(OC3CC3)c3[nH]c(=O)ccc3c1)C1CC1)nc2-c1ccc(F)cc1 [Example 59c]		> 200		
N[C@@]1(C(F)(F)F)COc2c1cc([C@@](O)(CNC(=O)c1cc(OC3CC3)c3nc(Cl)ccc3c1)C1CC1)nc2-c1ccc(F)cc1 [Example 59d]		< 200		
Cc1ccc2cc(C(=O)NC[C@](O)(c3cc4c(c(-c5ccc(F)cc5)n3)OC[C@@]4(N)C(F)(F)F)C3CC3)cc(OC3CC3)c2n1 [Example 59e]		< 200		
Cn1cc2cc(C(=O)NC[C@](O)(c3cc4c(c(-c5ccc(F)cc5)n3)OC[C@@]4(N)C(F)(F)F)C3CC3)cc(F)c2n1 [Example 64]		< 200		

Reference: patent US11420976B2 (priority 2020, dated 2022)
